The test system of one assay is Xbp1 splicing. Briefly: Xbp1 splicing (ER stress) by RT-PCR / Xbp1s level. It counts as cell-based, mouse. Here is the method:
We investigated another consequence of thapsigargin treatment, ER stress, for its possible association with NMD inhibition. Because thapsigargin-induced NMD inhibition occurred as early as 1 hour post-treatment, we examined cellular stress levels by measuring the splicing activity of X-box binding protein 1 (Xbp1). Xbp1 splicing rapidly responds to ER stress. As a part of the unfolded protein response (UPR) triggered by ER stress, the serine/threonine protein kinase/endoribonuclease inositol-requiring enzyme 1 (IRE1α) oligomerizes and activates its ribonuclease activity through trans-autophosphorylation (Rubio et al., 2011. J Cell Biol 193: 171-184; Samali et al., 2010. Int J Cell Biol 2010: 830307; van Schadewijk et al., 2012. Cell Stress Chaperones 17: 275-279; Hetz C. 2012. Nat Rev Mol Cell Biol 13: 89-102). Activated IRE1α excises a 26-nt intron of Xbp1 mRNA, resulting in a shorter isoform (Xbp1s) that encodes a potent transcriptional activator for the expression of chaperones. RT-PCR with primers flanking the 26-nt intron detected Xbp1 splicing at 1 hour after thapsigargin treatment (FIG. 3A). […] Since IRE1α is targeted by NMD (Karam et al., 2015. EMBO Rep 16: 599-609; Oren et al. 2014. EMBO Mol Med 6: 685-701), the Xbp1 intron excision could have been due to thapsigargin-induced NMD inhibition. […] Nevertheless, feedback between these two pathways may have occurred in the later phase (see below).
(§1) Neuro-2a (N2a) cells were maintained in N2a complete media consisting of L-glutamine-free Dulbecco's modified Eagle's medium (DMEM), 10% FBS and 1× GlutaMAX at 37° C. Thapsigargin (VWR, cat. no. 89161-410), ionomycin (Fisher Scientific, cat. no. AG-CN2-0416-M001) and ouabain octahydrate (Fisher Scientific, cat. no. 80055-364) were dissolved in DMSO and stored at −80° C. […]
Trizol (Life Technologies, cat. no. 15596-018) was directly added to the cells or mouse brain tissues to extract total RNA following the Trizol Reagent standard protocol. […] RNA concentrations were measured using a Nanodrop 2000c (Thermo Fisher). […]

Another assay deals with Bip transcript. Briefly: Bip transcript levels as reporter of ATF6α activity. It counts as cell-based, mouse.
Source text: Perk knockdown attenuated thapsigargin-induced Xpb1s (FIG. 4E) probably due to the restoration of NMD activity and because NMD inhibits IRE1α to splice Xbp1 (Oren et al. 2014. EMBO Mol Med 6: 685-701; Karam et al., 2015. EMBO Rep 16: 599-609). […] The Xbp1s level in the thapsigargin-treated siPerk cells was still 6 to 8 fold higher than in DMSO-treated cells, indicative of potent IRE1a activity. We also examined Bip transcript levels as a reporter of ATF6α activity (FIG. 4F). […] In summary, in PERK-deficient cells, thapsigargin continued to activate IREα and ATF6α but no longer inhibited NMD.
as §1
Trizol (Life Technologies, cat. no. 15596-018) was directly added to the cells or mouse brain tissues to extract total RNA following the Trizol Reagent standard protocol. […] RNA concentrations were measured using a Nanodrop 2000c (Thermo Fisher). […] Relative expression (fold changes) was calculated using the ΔΔCt method. […]

In the case of `Cn1cc(-c2ccc3c(c2)CCN3C(=O)Cc2cccc(C(F)(F)F)c2)c2c(N)ncnc21` [GSK2606414], in the assay with Xbp1 splicing (thapsigargin plus GSK2606414), the “thapsigargin-induced Xbp1s” value was “attenuating”. Further, the Bip transcripts result in the assay on Bip transcript (thapsigargin plus GSK2606414) is on record as “did not down-regulate”.

For the compound `C/C=C(/C)C(=O)O[C@H]1C(C)=C2[C@H]([C@@H]1OC(=O)CCCCCCC)[C@@](C)(OC(C)=O)C[C@H](OC(=O)CCC)[C@@]1(O)[C@H]2OC(=O)[C@@]1(C)O` [thapsigargin], the “time at which Xbp1 splicing was detected” value in the assay with Xbp1 splicing (0.2 μM thapsigargin, N2a cells) amounted to 1 h. For the same compound, the “concentration at which Xbp1 intron excision occurred” value with Xbp1 splicing (N2a cells, 5 hours post-treatment) was 0.01 µM. In addition, in the assay on Bip transcript (thapsigargin treatment, maintained with siPerk), the Bip transcript levels entry was “significantly boosted”.

(Values after patent US20180010188A1, “METHOD FOR DETECTING NONSENSE-MEDIATED RNA DECAY” (The Regents of the University of California, priority 2016, published 2018).)
